Assay results from publication doi:10.1101/2021.09.15.460527v1 (bioRxiv, 2021).
Starred links: 1 amine or outer side, 2 acyl side, 3 side chain; linkers in the order of their positions; H or OH if unused. Groups on a side chain read outwards from the residue. No end group written: not given here. *: point of attachment. γGlu = O=C(O)[C@H](CCC(=O)[*:2])N[*:1]; Palmitoyl = CCCCCCCCCCCCCCCC(=O)*

Tested on: rats with heroin self-administration experience
Test: Cue-induced heroin seeking
Assay type: in vivo, rat
Conditions: 0.3 mg/kg sc

## liraglutide (HAEGTFTSDVSSYLEGQAAK([γGlu-Palmitoyl])EFIAWLVRGRG; chains of the INN, looked up)
  Minimum effective pretreatment time: between four and six
